From patent US20190202823A1, “N-SULFONYLATED PYRAZOLO[3,4-b]PYRIDIN-6-CARBOXAMIDES AND METHOD OF USE” (AbbVie S.à.r.l., priority 2015, published 2019)
pEC50: −log10 of the molar value.

Tests used:
[1] = biological target: T1, ΔF508-CFTR (Homo sapiens, UniProt P13569, DEL508-508); test: CFTR cell surface levels using HRP-tagged ΔF508-CFTR expressing CFBE cells, in the presence of a co-corrector; assay type: cell-based; details: HRP-tagged ΔF508-CFTR CFBE41o- cells, with 3 μM co-corrector; for % Activation: positive control 3 μM co-corrector
T1 construct: host or cells: CFBE41o- cells, doxycycline-inducible expression
From the text: (§1) Measuring CFTR Cell Surface Levels Using HRP-Tagged ΔF508-CFTR Expressing CFBE Cells
(§2) The HRP-tagged ΔF508-CFTR cell assay measures the expression of CFTR-ΔF508 at the plasma membrane. CFTR-ΔF508 has a folding defect leading to absence of protein at the plasma membrane. This assay is used to evaluate the capacity of compounds to increase the expression of CFTR-ΔF508 at the plasma membrane. […] When HRP-tagged ΔF508-CFTR is present at the plasma membrane, the HRP enzyme activity can be measured. The amount of CFTR-ΔF508 that can be rescued to the plasma membrane is correlated with the amount of functional enzyme that can be measured.
(§3) There are several ways to measure the capacity of compounds to rescue CFTR-ΔF508 to the plasma membrane; either compounds are evaluated on their own and the impact on plasma membrane levels is measured or compounds are evaluated in combination with a co-corrector, i.e. a compound that rescues CFTR-ΔF508 to the plasma membrane but rescue can be enhanced by addition of compounds due to a complementary mode of action.
Activity of Compounds in Combination with Co-Corrector:
On day four, 10 μL of test compounds diluted in PBS (phosphate buffered saline) were added to the plates at a final DMSO concentration of 0.1%. In order to measure compound synergy with a co-corrector, 3 μM co-corrector (3-[(2R,4R)-4-({[1-(2,2-difluoro-1,3-benzodioxol-5-yl)cyclopropyl]carbonyl}amino)-7-methoxy-3,4-dihydro-2H-chromen-2-yl]benzoic acid) was added along with test compounds. All compound plates contained negative controls (DMSO) and positive controls (3 μM co-corrector). Cell plates were incubated at 33° C., 5% CO2 for 20 hours. […] After incubation for 15 minutes in the dark, the chemiluminescence was measured using a plate reader (EnVision®, Perkin Elmer). Raw data were normalized to percentage activity values using the equation: 100×(Sample−Negative control)/(Positive control−Negative Control).

[2] = biological target: T1, ΔF508-CFTR; test: CFTR cell surface levels using HRP-tagged ΔF508-CFTR expressing CFBE cells, intrinsic corrector capacity; assay type: cell-based; set-up: % Activation: concentration or dose not given beside the values; details: HRP-tagged ΔF508-CFTR expressing CFBE41o- cells; compounds alone (intrinsic corrector capacity); 20 hours at 33° C.
From the text: as §1, §2, §3
Activity of Compounds for their Intrinsic Corrector Capacity:
On day four, L test compounds diluted in PBS were added to the plates at a final DMSO concentration of 0.1%. All compound plates contained negative controls (DMSO) and positive controls ([…] corrector, 3-[(2R,4R)-4-({[1-(2,2-difluoro-1,3-benzodioxol-5-yl)cyclopropyl]carbonyl}amino)-7-methoxy-3,4-dihydro-2H-chromen-2-yl]benzoic acid). Cell plates were incubated at 33° C., 5% CO2 for 20 hours. […] After incubation for 15 minutes in the dark, chemiluminescence was measured using a plate reader (EnVision®, Perkin Elmer). Raw data were normalized to percentage activity values using the equation: 100×(Sample−Negative control)/(Positive control−Negative Control).

T1 sequence (P13569 with tags, fused parts or gaps DEL508-508): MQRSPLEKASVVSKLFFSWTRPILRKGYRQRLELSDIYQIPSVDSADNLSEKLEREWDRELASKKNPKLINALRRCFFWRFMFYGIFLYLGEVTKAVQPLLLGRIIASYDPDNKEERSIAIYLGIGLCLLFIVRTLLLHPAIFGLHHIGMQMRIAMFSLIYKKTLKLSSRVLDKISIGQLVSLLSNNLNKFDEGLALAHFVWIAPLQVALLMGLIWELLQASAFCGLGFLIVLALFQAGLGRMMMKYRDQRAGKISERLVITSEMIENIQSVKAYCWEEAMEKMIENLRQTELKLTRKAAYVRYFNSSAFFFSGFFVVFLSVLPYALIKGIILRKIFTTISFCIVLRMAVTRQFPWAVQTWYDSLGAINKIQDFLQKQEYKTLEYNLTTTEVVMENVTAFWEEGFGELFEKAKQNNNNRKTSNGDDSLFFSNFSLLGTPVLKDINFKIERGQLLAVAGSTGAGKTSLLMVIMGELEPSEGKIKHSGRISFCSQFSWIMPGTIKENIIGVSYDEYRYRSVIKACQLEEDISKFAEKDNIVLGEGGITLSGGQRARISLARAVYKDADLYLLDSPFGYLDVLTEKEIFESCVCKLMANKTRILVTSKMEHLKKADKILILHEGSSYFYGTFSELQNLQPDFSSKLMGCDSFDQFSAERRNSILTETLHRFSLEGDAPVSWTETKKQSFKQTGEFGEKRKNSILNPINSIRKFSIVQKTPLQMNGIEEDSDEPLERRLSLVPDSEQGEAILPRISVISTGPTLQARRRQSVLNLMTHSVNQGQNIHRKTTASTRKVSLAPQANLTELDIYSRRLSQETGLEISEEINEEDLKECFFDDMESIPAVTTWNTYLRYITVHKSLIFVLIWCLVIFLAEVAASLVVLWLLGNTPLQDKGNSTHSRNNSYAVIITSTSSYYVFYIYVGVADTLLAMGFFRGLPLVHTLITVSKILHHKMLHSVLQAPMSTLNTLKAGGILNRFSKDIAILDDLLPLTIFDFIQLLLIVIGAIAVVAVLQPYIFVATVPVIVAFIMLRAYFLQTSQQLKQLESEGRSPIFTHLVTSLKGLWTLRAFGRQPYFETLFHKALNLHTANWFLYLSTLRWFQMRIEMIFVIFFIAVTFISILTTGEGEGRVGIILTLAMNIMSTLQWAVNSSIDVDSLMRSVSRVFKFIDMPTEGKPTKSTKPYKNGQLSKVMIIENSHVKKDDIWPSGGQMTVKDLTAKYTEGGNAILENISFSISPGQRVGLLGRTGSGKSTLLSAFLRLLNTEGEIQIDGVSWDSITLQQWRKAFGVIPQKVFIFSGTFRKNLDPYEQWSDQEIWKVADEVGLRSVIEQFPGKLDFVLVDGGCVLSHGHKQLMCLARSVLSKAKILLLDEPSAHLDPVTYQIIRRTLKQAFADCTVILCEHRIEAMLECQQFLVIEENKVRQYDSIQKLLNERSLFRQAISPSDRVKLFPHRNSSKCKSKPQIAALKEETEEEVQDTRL

Row | Compound | pEC50 [1] | pEC50 [2] | other results
1 | Cc1nn(C2CCCCC2)c2nc(C(=O)NS(C)(=O)=O)cc(-c3ccc(N4CCOCC4)nc3)c12 [compound 47] | 5.79 | – | –
2 | CS(=O)(=O)NC(=O)c1cc(OCCCN2CCCCC2)c2c(C3CCC3)nn(-c3ccccc3)c2n1 [compound 314] | 6.16 | – | –
3 | COCC1CCN(Cc2cc(C(=O)NS(=O)(=O)N(C)C)nc3c2c(C2CCC2)nn3-c2ccc(F)cc2)CC1 [compound 521] | – | 5.00 | –
4 | CC(c1ccc(-c2cc(C(=O)NS(=O)(=O)N(C)C)nc3c2c(C2CCC2)nn3C2CCCCC2)cc1)N1CCOCC1 (stereo not drawn) [compound 543] | 7.41 | – | –
5 | CN(C)S(=O)(=O)NC(=O)c1cc(N2CCC(N3CCC(C#N)C3)CC2)c2c(C3CCC3)nn(-c3ccc(F)cc3)c2n1 (stereo not drawn) [compound 561] | 7.38 | – | –
6 | CC(C)N1CCC(c2cc(C(=O)NS(=O)(=O)N(C)C)nc3c2c(C2CCC2)nn3-c2ccc(F)cc2)CC1 [compound 598] | – | 5.00 | –
7 | CN(C)S(=O)(=O)NC(=O)c1cc(C2CCN(CCC(F)(F)F)CC2)c2c(C3CCC3)nn(-c3ccc(F)cc3)c2n1 [compound 604] | – | – | % Activation [1]: 269.3%
8 | CN(C)S(=O)(=O)NC(=O)c1cc(C2CCN(CC3CC3)CC2)c2c(C3CCC3)nn(-c3ccc(F)cc3)c2n1 [compound 613] | – | 5.00 | –
9 | CC(C)Oc1nn(C2CCCCC2)c2nc(C(=O)NS(C)(=O)=O)cc(-c3ccc(C4(C#N)CCN(C)CC4)cc3)c12 [compound 639] | 7.13 | 6.88 | % Activation [2]: 238.35%; % Activation [1]: 464.55%
